Measurements as given in ChEMBL document CHEMBL4834443, “Identification of bioactive compounds from mulberry enhancing glucose-stimulated insulin secretion” (Bioorg Med Chem Lett, 2021).
Active and inactive are the calls of the source. The calls are words filed in the database; no cut-off is given here.

Key:
INS1 [1] = assay: Cytotoxicity against rat INS1 cells assessed as cell viability at 1 to 10 uM measured after 24 hrs by MTT assay; type: cell-based; settings: ins1, 24 h, dose 1-10 µM
INS1 [2] = assay: Stimulation of glucose stimulated insulin secretion in rat INS1 cells assessed as glucose stimulation index at 2.5 uM in presence of glucose measured after 1 hr; type: functional
INS1 [3] = assay: Stimulation of glucose stimulated insulin secretion in rat INS1 cells assessed as glucose stimulation index at 5 uM in presence of glucose measured after 1 hr; type: functional
INS1 [4] = assay: Cytotoxicity against rat INS1 cells assessed as cell viability at 10 uM measured after 24 hrs by MTT assay; type: cell-based; settings: ins1, 24 h
INS1 [5] = assay: Induction of insulin secretion in rat INS1 cells assessed as increase in phosphorylation of PI3K at 2.5 uM measured after 24 hrs by western blot assay; type: functional, cell-based
INS1 [6] = assay: Induction of insulin secretion in rat INS1 cells assessed as increase in AKT expression at 2.5 uM measured after 24 hrs by western blot assay; type: functional, cell-based
INS1 [7] = assay: Induction of insulin secretion in rat INS1 cells assessed as increase in PDX-1 expression at 2.5 uM measured after 24 hrs by western blot assay; type: functional, cell-based
INS1 [8] = assay: Induction of insulin secretion in rat INS1 cells assessed as increase in IRS-2 expression at 2.5 uM measured after 24 hrs by western blot assay; type: functional, cell-based
INS1 [9] = assay: Induction of insulin secretion in rat INS1 cells assessed as increase in PI3K expression at 2.5 uM measured after 24 hrs by western blot assay; type: functional, cell-based
INS1 [10] = assay: Induction of insulin secretion in rat INS1 cells assessed as increase in phosphorylation of IRS 2 at Ser 731 at 2.5 uM measured after 24 hrs by western blot assay; type: functional, cell-based
INS1 [11] = assay: Induction of insulin secretion in rat INS1 cells assessed as increase in phosphorylation of AKT at Ser 473 at 2.5 uM measured after 24 hrs by western blot assay; type: functional, cell-based
INS1 [12] = assay: Induction of insulin secretion in rat INS1 cells assessed as increase in AKT expression at 5 uM measured after 24 hrs by western blot assay; type: functional, cell-based
INS1 [13] = assay: Induction of insulin secretion in rat INS1 cells assessed as increase in phosphorylation of PI3K at 5 uM measured after 24 hrs by western blot assay; type: functional, cell-based
INS1 [14] = assay: Induction of insulin secretion in rat INS1 cells assessed as increase in IRS-2 expression at 5 uM measured after 24 hrs by western blot assay; type: functional, cell-based
INS1 [15] = assay: Induction of insulin secretion in rat INS1 cells assessed as increase in PI3K expression at 5 uM measured after 24 hrs by western blot assay; type: functional, cell-based
INS1 [16] = assay: Induction of insulin secretion in rat INS1 cells assessed as increase in phosphorylation of IRS 2 at Ser 731 at 5 uM measured after 24 hrs by western blot assay; type: functional, cell-based
INS1 [17] = assay: Induction of insulin secretion in rat INS1 cells assessed as increase in PDX-1 expression at 5 uM measured after 24 hrs by western blot assay; type: functional, cell-based
INS1 [18] = assay: Induction of insulin secretion in rat INS1 cells assessed as increase in phosphorylation of AKT at Ser 473 at 5 uM measured after 24 hrs by western blot assay; type: functional, cell-based

COC(=O)[C@@H]1CCC(=O)N1
Activity (INS1 [1]): Non-Toxic

O=Cc1coc2ccccc12
Activity (INS1 [1]): Non-Toxic

Cc1ccc(S(=O)(=O)NC(=O)NN2CC3CCCC3C2)cc1 (configuration not stated) [GLICLAZIDE]
Activity_index (INS1 [2]): 2.46
Activity_index (INS1 [3]): 3.47
Activity (INS1 [4]): Toxic

C[C@@H](C(=O)O)[C@H]1CCO[C@]1(C)O
Activity (INS1 [1]): Non-Toxic

O=C1CC[C@@H](O)N1
Activity (INS1 [5]): Active
Activity (INS1 [1]): Non-Toxic
Activity (INS1 [6]): Active
Activity (INS1 [7]): Active
Activity (INS1 [8]): Active
Activity (INS1 [9]): Active
Activity_index (INS1 [2]): 6.57
Activity (INS1 [10]): Active
Activity (INS1 [11]): Active
Activity_index (INS1 [3]): 11.31

CC1(C)C[C@H](O)C[C@@]2(C)OC(=O)C=C12 [LOLIOLIDE]
Activity (INS1 [1]): Non-Toxic

c1ccc2[nH]ccc2c1 [INDOLE]
Activity (INS1 [1]): Non-Toxic
Activity (INS1 [12]): Active
Activity (INS1 [13]): Active
Activity (INS1 [14]): Active
Activity (INS1 [15]): Active
Activity (INS1 [16]): Active
Activity_index (INS1 [2]): 3.31
Activity (INS1 [17]): Active
Activity_index (INS1 [3]): 7.72
Activity (INS1 [18]): Active
